# According to patent publication US20110172296A1, “MODULATION OF TRANSFORMING GROWTH FACTOR-BETA 1 EXPRESSION” (priority 2010, published 2011):
# “And” between values parts separate entries of the source, which are not always exact repeats. Identical values can stand only once. In the oligonucleotide strings, read from the 5' end, every base follows the letter of its sugar. An asterisk marks phosphorothioate; unmarked linkages are phosphodiester. Other units and linkages are bracketed, terminal groups are in braces. A string of capitals states the bases alone. e = 2'-O-(2-methoxyethyl) (MOE); [5mC] = 5-methylcytosine; d = 2'-deoxy (DNA)
# Test system: human TGF-beta1 mRNA
# Assay: Antisense inhibition of human TGF-beta1 mRNA in HuVEC cells, single 10 nM dose, Lipofectamine 2000 (Example 2)
# Type: cell-based
# Details: for % inhibition: 10 nM oligonucleotide, HuVEC, relative to untreated control cells, gapmers targeted to SEQ ID NO: 2; for inhibition of a TGF-beta1 mRNA: threshold lists of Oligo IDs, 10 nM
# Outline: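 Percent inhibition relative to untreated controls, from qRT-PCR of mRNA corrected for total RNA (RIBOGREEN). Cells were exposed 4 h to 10 nM phosphorothioate 2-13-5 MOE gapmers with Lipofectamine 2000 at 5,000 cells/well. RNA was harvested after roughly 24 h recovery.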
Substance,% inhibition,inhibition of a TGF-beta1 mRNA
414112 (antisense eG*eG*d[5mC]*dA*dG*d[5mC]*dA*dT*d[5mC]*dA*d[5mC]*d[5mC]*dT*dG*dG*eG*eA*eA*e[5mC]*eT) [compound 414112],57%,–
414113 (antisense eT*e[5mC]*dT*dG*dG*dG*dA*dA*dA*dA*dA*dG*dA*dG*dT*e[5mC]*e[5mC]*eT*eG*eG) [compound 414113],79%,60% and 65% and 70% and 75%
414114 (antisense eT*eT*dT*d[5mC]*d[5mC]*dA*dA*dG*dA*dG*d[5mC]*d[5mC]*dA*d[5mC]*dA*eG*eA*eA*eG*e[5mC]) [compound 414114],46%,–
414115 (antisense eT*eT*dT*dT*d[5mC]*d[5mC]*dA*dT*dA*dA*dT*dA*dA*dA*dG*eG*eA*eA*eT*eT) [compound 414115],18%,–
414116 (antisense e[5mC]*eT*dG*dG*dA*dT*dG*dA*dG*dA*dG*dT*dT*dT*dA*e[5mC]*eG*eG*eG*e[5mC]) [compound 414116],83%,60% and 65% and 70% and 75% and 80%
414117 (antisense eA*eG*dT*dG*d[5mC]*dA*dA*dT*dA*d[5mC]*dG*dG*dT*dA*dT*eT*eG*e[5mC]*eA*eG) [compound 414117],81%,60% and 65% and 70% and 75% and 80%
414118 (antisense eA*eA*dT*dG*d[5mC]*d[5mC]*d[5mC]*dA*dA*dG*dT*d[5mC]*d[5mC]*dT*d[5mC]*eA*e[5mC]*e[5mC]*eG*eT) [compound 414118],73%,60% and 65% and 70%
414119 (antisense eT*eG*dT*dG*d[5mC]*dA*dA*d[5mC]*dA*dA*dA*dT*dG*dT*dT*eT*eA*eT*eT*eG) [compound 414119],43%,–
414120 (antisense e[5mC]*eA*d[5mC]*dA*d[5mC]*d[5mC]*d[5mC]*dT*dG*dG*dA*dA*d[5mC]*dA*dT*eA*e[5mC]*eA*eA*eA) [compound 414120],40%,–
414121 (antisense eG*e[5mC]*dA*dA*dT*dG*d[5mC]*dT*dT*dA*dA*dG*dA*d[5mC]*dA*eA*eG*e[5mC]*e[5mC]*eT) [compound 414121],62%,60%
414122 (antisense eT*e[5mC]*dA*d[5mC]*dT*dA*dA*d[5mC]*dA*d[5mC]*dA*dG*dA*dT*dT*eA*eA*eG*e[5mC]*eA) [compound 414122],34%,–
